Assay results: patent publication US20060128721A1, “Novel formulations of opioid-based treatments of pain comprising substituted 1,4-di-piperidin-4-yl-piperazine derivatives” (priority 2003, published 2006)
Like-named read-outs stand apart in the source and are kept apart here.

Assays:
[1] = biological target: T1, cloned human h-NK1 receptors expressed in CHO cells (Homo sapiens, UniProt P25103); experiment: Binding experiment for h-NK1 receptors ([3H]-Substance P displacement); conditions: read-out: h-NK1 pIC50 (converted)
T1 construct: expressed in transfected cells; host or cells: CHO cells
T1 sequence (P25103 whole entry): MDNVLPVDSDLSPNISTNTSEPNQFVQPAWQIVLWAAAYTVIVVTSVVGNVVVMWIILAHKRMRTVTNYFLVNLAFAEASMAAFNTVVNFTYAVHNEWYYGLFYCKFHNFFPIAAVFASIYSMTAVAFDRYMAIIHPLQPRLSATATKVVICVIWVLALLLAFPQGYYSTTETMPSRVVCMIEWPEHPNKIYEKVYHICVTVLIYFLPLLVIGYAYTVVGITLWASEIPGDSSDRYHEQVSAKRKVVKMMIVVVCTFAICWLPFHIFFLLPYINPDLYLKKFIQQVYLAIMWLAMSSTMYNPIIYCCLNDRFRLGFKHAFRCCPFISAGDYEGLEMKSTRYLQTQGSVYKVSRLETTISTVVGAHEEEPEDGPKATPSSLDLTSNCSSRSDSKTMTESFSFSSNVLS
Protocol: (§1) The compounds according to the invention were investigated for interaction with various neurotransmitter receptors, ion channels and transporter binding sites using the radioligand binding technique. Membranes from tissue homogenates or from cells, expressing the receptor or transporter of interests, were incubated with a radioactively labelled substance ([^3H]- or [^125I] ligand) to label a particular receptor. […] Following incubation, labelled membranes were harvested and rinsed with excessive cold buffer to remove non-bound radioactivity by rapid filtration under suction. Membrane bound radioactivity was counted in a scintillation counter and results were expressed in counts per minute (cpm).
(§2) The compounds were dissolved in DMSO and tested at 10 concentrations ranging from 10^−10 to 10^−5 M.
(§3) The ability of the compounds according to the invention to displace [^3H]-Substance P from cloned human h-NK1 receptors expressed in CHO cells, to displace [^3H]-SR-48968 from cloned human h-NK2 receptors expressed in Sf9 cells, and to displace [^3H]-SR-142801 from cloned human h-NK3 receptors expressed in CHO cells was evaluated.

[2] = biological target: T2, cloned human h-NK2 receptors expressed in Sf9 cells (Homo sapiens, UniProt P21452); experiment: Binding experiment for h-NK2 receptors ([3H]-SR-48968 displacement); conditions: [3H]-SR-48968, Sf9 cells; read-out: h-NK2 pIC50 (converted)
T2 construct: expressed in transfected cells; host or cells: Sf9 cells
T2 sequence (P21452 1-398): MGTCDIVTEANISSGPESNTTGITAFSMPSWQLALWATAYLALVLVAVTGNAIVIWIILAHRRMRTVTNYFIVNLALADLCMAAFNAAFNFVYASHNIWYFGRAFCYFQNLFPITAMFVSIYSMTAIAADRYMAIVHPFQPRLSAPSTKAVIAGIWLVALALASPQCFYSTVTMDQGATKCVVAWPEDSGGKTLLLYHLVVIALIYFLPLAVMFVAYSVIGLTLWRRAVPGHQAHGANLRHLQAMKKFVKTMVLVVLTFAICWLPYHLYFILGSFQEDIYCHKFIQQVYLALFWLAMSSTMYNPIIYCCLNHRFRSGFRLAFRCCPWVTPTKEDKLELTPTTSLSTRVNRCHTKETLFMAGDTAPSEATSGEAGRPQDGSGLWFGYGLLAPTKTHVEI
Protocol: as §1, §2, §3

[3] = biological target: T3, cloned human h-NK3 receptors expressed in CHO cells (Homo sapiens, UniProt P29371); experiment: Binding experiment for h-NK3 receptors ([3H]-SR-142801 displacement); conditions: [3H]-SR-142801, CHO cells; read-out: h-NK3 pIC50 (converted)
T3 construct: expressed in transfected cells; host or cells: CHO cells
T3 sequence (P29371 1-465): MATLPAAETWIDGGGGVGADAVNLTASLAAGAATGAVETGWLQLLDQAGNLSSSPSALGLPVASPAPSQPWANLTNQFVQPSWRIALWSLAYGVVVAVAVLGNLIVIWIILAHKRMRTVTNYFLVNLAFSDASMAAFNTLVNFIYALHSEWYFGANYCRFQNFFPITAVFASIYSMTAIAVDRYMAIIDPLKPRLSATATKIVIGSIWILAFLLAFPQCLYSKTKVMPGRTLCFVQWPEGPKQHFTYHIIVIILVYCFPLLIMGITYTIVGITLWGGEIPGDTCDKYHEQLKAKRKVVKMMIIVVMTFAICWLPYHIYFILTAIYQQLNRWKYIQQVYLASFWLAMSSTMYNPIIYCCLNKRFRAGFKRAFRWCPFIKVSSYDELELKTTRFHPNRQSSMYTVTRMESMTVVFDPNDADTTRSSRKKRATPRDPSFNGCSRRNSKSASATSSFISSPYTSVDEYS
Protocol: as §1, §2, §3

[4] = tested on: loperamide-induced retching; experiment: Antiemetic effects: loperamide-induced retching in ferrets; format: in vivo; conditions: ferrets
Protocol: The antiemetic effects have been determined using the loperamide-induced retching model (i.e. retching induced by an opioid) in ferrets. To exclude species differences in antiemetic activiey, both compounds have also been tested for antiemetic activity against apomorphine in dogs.
Antagonism of emesis induced by the peripherally selective opioid loperamide (0.31 mg/kg, s.c.) was studied over a 1 h-period starting immediately after the emetic challenge in ferrets pretreated with test compound or solvent. In control animals pre-treated with solvent, loperamide induced pronounced retching (mean±SD: 95±39 counts; n=[…]) and, to a lesser extent, vomiting (5±4).

O=C(c1ccccc1)N1CCC(N2CCN(C3CCN(C(=O)c4cc(C(F)(F)F)cc(C(F)(F)F)c4)C(Cc4ccccc4)C3)CC2)CC1 (stereo not drawn) [Compound 3, {4-[4-(1-benzoyl-piperidin-4-yl)-piperazin-1-yl]-2-benzyl-piperidin-1-yl}-(3,5-bis-trifluoromethyl-phenyl)-methanone]
IC50 [1]: 1.26 nM
IC50 [2]: 501 nM
IC50 [3]: 251 nM
ratio of oral ED50 (at time of peak effect) over subcutaneous ED50 (obtained at 1 h) [4]: 1.4-1.8
ED50 ([4]; blockade (=0 retches), intravenous route, 1 h after administration, read-out: ED50 for blockade of loperamide-induced retching): 0.88 mg/kg
ED50 ([4]; blockade (=0 retches), oral route, 1 h after administration, read-out: ED50 for blockade of loperamide-induced retching): 1.65 mg/kg
ED50 ([4]; blockade (=0 retches), oral route, 2 h after administration, read-out: ED50 for blockade of loperamide-induced retching): 2.18 mg/kg
ED50 ([4]; blockade (=0 retches), oral route, 4 h after administration, read-out: ED50 for blockade of loperamide-induced retching): 1.25 mg/kg
ED50 ([4]; blockade (=0 retches), oral route, 8 h after administration, read-out: ED50 for blockade of loperamide-induced retching): 2.89 mg/kg
ED50 ([4]; blockade (=0 retches), oral route, 16 h after administration, read-out: ED50 for blockade of loperamide-induced retching): 2.89 mg/kg
ED50 ([4]; blockade (=0 retches), oral route, 32 h after administration, read-out: ED50 for blockade of loperamide-induced retching): 5 mg/kg
ED50 ([4]; blockade (=0 retches), oral route, 64 h after administration, read-out: ED50 for blockade of loperamide-induced retching): > 10 mg/kg
ED50 ([4]; inhibition (<20 retches), intravenous route, 1 h after administration, read-out: ED50 for inhibition of loperamide-induced retching): 0.39 mg/kg
ED50 ([4]; inhibition (<20 retches), oral route, 1 h after administration, read-out: ED50 for inhibition of loperamide-induced retching): 0.72 mg/kg
ED50 ([4]; inhibition (<20 retches), oral route, 2 h after administration, read-out: ED50 for inhibition of loperamide-induced retching): 0.96 mg/kg
ED50 ([4]; inhibition (<20 retches), oral route, 4 h after administration, read-out: ED50 for inhibition of loperamide-induced retching): 1.25 mg/kg
ED50 ([4]; inhibition (<20 retches), oral route, 8 h after administration, read-out: ED50 for inhibition of loperamide-induced retching): 1.25 mg/kg
ED50 ([4]; inhibition (<20 retches), oral route, 16 h after administration, read-out: ED50 for inhibition of loperamide-induced retching): 1.26 mg/kg
ED50 ([4]; inhibition (<20 retches), oral route, 32 h after administration, read-out: ED50 for inhibition of loperamide-induced retching): 3.81 mg/kg
ED50 ([4]; inhibition (<20 retches), oral route, 64 h after administration, read-out: ED50 for inhibition of loperamide-induced retching): > 10 mg/kg
ED50 ([4]; oral administration, time of peak effect, read-out: graphically estimated peak-effect ED50 for blockade of retching (=0 retches)): 1.4 mg/kg
duration of action ([4]; oral, at 4 times the peak-effect dose): 32 h
Ratio p.o./s.c. of ED50 for blockade of retching ([4]; p.o. (−2 h) over s.c. (−1 h)): 2.3
ED50 ([4]; iv, read-out: ED50 for blockade of retching 1 h after i.v. injection, i.v., 1 h): 0.88 mg/kg
ED50 ([4]; iv, read-out: ED50 for inhibition of retching 1 h after i.v. injection, i.v., 1 h): 0.39 mg/kg
ED50 ([4]; read-out: ED50 (95% confidence limits) for blockade of loperamide-induced retching, p.o. route (−2 h), loperamide 0.31 mg/kg s.c., 2 h after oral administration, blockade = 0 retches): 2.18 mg/kg
ED50 ([4]; read-out: graphically estimated peak-effect ED50 for inhibition of retching (<20 retches), oral administration, time of peak effect): 1 mg/kg
ED50 ([4]; sc, read-out: ED50 for blockade of loperamide-induced retching, loperamide 0.31 mg/kg s.c., 1 h after subcutaneous administration, blockade = 0 retches): 0.96 mg/kg
ED50 ([4]; sc, blockade (=0 retches), subcutaneous route, 1 h after administration, read-out: ED50 for blockade of loperamide-induced retching): 0.96 mg/kg
ED50 ([4]; sc, inhibition (<20 retches), subcutaneous route, 1 h after administration, read-out: ED50 for inhibition of loperamide-induced retching): 0.55 mg/kg
ED50 ([4]; sc, s.c., 1 h, <20 retches, read-out: ED50 for inhibition of retching one hour after s.c. injection): 0.55 mg/kg
ED50 ([4]; sc, s.c., 1 h, =0 retches, read-out: ED50 for complete blockade of retching one hour after s.c. injection): 0.96 mg/kg

O=C(c1cc(C(F)(F)F)cc(C(F)(F)F)c1)N1CCC(N2CCN(C3CCN(Cc4nc5ccccc5[nH]4)CC3)CC2)CC1Cc1ccccc1 (stereo not drawn) [Compound 7]
IC50 [1]: 7.94 nM
IC50 [2]: 1000 nM
IC50 [3]: 1000 nM
melting point: 135 °C

Cc1nnsc1C(=O)N1CCC(N2CCN([C@@H]3CCN(C(=O)c4cc(C(F)(F)F)cc(C(F)(F)F)c4)[C@@H](Cc4ccccc4)C3)CC2)CC1 [Compound 141]
IC50 [1]: 7.94 nM
IC50 [2]: 3980 nM
IC50 [3]: 3980 nM
